Laboratory results taken from US20090269796A1, “METHODS OF DETECTING AND TREATING MYOCARDIAL ISCHEMIA AND MYOCARDIAL INFARCTION” (THE GENERAL HOSPITAL CORPORATION, priority 2007, published 2009).

Tested on: not listed separately
Assay: Simultaneous coronary sinus and peripheral plasma sampling after planned MI (13-patient subgroup), LC-MS/MS profiling
Format: in vivo, human
Conditions: elevated earlier in coronary sinus, FIG. 4 top panel
Procedure: Blood was drawn at baseline (just prior to the onset of the ablation) and at minutes, 1 hour, 2 hours, 4 hours and 24 hours following the onset of injury as depicted in FIG. 1. 13 of the 36 patients consented to the placement of a coronary sinus catheter during the ablation, allowing for the simultaneous sampling from coronary sinus and femoral catheters at the baseline, 10-minute and 1-hour time points. The coronary sinus catheter was subsequently removed prior to the patient leaving the catheterization suite.
Samples were obtained from femoral venous catheters during the procedure or, where indicated, from a catheter placed in the coronary sinus. Samples were collected in K2EDTA-treated tubes (Becton Dickinson). All blood samples were centrifuged at 2000×g for 10 minutes to pellet cellular elements. The supernatant plasma was then aliquoted and immediately frozen at −80° C. to minimize freeze-thaw degradation. Additional blood samples were sent to the clinical chemistry laboratory for evaluation of the standard cardiac markers creatine kinase (CK), CK-MB, and Troponin T (Roche Diagnostics).
The specificity of the findings described above was further examined by exploring the anatomic origin of the metabolic changes. […]
For `O=C(O)CC(O)C(=O)O` (stereo not drawn) [Malic Acid], the “Time after injury until elevation evident in the periphery” value was 120 min. In the case of `O=P(O)(O)OCC(O)CO` (stereo not drawn) [Glycerol-3-P, glycerol-3-phosphate], the “Time after injury until elevation evident in the periphery” value is reported as 120 min.

Tested on: not listed separately
Assay: Metabolite changes in peripheral plasma after planned MI (alcohol septal ablation), LC-MS/MS profiling
Format: in vivo, human
Conditions: FIG. 3, lower panel
Source text: A total of 36 patients undergoing planned MI using alcohol septal ablation for the treatment of symptomatic hypertrophic obstructive cardiomyopathy (HOCM) were included. Inclusion criteria for the cohort were: 1) primary HOCM; 2) septal thickness of 16 mm or greater; 3) resting outflow tract gradient of greater than 30 mmHg, or an inducible outflow tract gradient of at least 50 mm Hg; 4) symptoms refractory to optimal medical therapy; and 5) appropriate coronary anatomy. The most proximal accessible septal branch was instrumented using standard angioplasty guiding catheters and guidewires and 1.5 or 2.0 mm×9 mm Maverick™ balloon catheters. Radiographic and echocardiographic contrast injections confirmed proper selection of the septal branch and balloon catheter position. Ethanol was infused through the balloon catheter at 1 ml per minute. Additional injections in the same or other septal branches were administered as needed, causing cessation of blood flow to the isolated myocardium, and to reduce the gradient to <20 mmHg.^16 […]
The three HPLC columns were connected in parallel via an automated switching valve on a robotic sample loader (Leap Technologies) to a triple quadrupole mass spectrometer (AB4000Q, Applied Biosystem/Sciex), operated in electrospray ionization mode using a turbo ion spray LC/MS interface. […] A total of 210 known metabolites were monitored for each sample. […]
In the case of `Nc1ccccc1C(=O)O` [anthanilic acid], the “Kinetic pattern of change in peripheral plasma after planned MI” value is reported as “Later-appearing”. In the case of `CN(CC(=O)O)C(=N)N` [creatine], the “Kinetic pattern of change in peripheral plasma after planned MI” value is reported as “Later-appearing”.

Tested on: Neonatal rat cardiomyocytes
Assay: Hypoxia-induced apoptosis (annexin V) of cardiomyocytes pretreated with individual metabolites
Format: cell-based
Conditions: metabolite added 5 minutes before 3 hours hypoxia; lowest concentration screened; annexin V-positive cells; FIG. 6
Procedure: Neonatal rat cardiomyocytes were treated with individual metabolites previously identified using planned MI metabolomics. In the first, metabolites that are increased in the peripheral blood and/or the coronary sinus samples were prioritized. Neonatal cardiomyocytes were isolated from 1-day old rats, cultured for three days, and then challenged in a hypoxia chamber (<0.5% O2, 95% nitrogen and 5% CO2 at 37° C.) for 3 hours, as previously described.^18 Baseline apoptosis is typically ˜10%, which increases to ˜30% following hypoxic challenge, as assessed by FITC-conjugated annexin V staining. Metabolites at the indicated concentrations were added to experimental plates 5 minutes prior to the onset of hypoxia. Metabolites were examined at ˜2 fold reported blood concentrations (where available), as well as at one log increased concentration (see also Human Metabolomics Database, HMDB, at http://www.hmdb.ca). 30 minutes after reoxygenation, the number of annexin V-positive cells per five HPF was counted from n=3 culture plates. The data depicted represent the percent change in apoptosis relative to the hypoxia control for the lowest concentration of each metabolite screened. (*P<0.05 by unpaired student's t test). […] Accordingly, one would seek to inhibit the metabolite in question as part of treatment or prevention scheme.
Accordingly, one would seek to administer the metabolite in question as part of treatment or prevention scheme. Such metabolites include, according to FIG. 6, G3P, inosine, malonic acid, TMNO, and orotic acid. Alternatively, one could administer a compound that upregulates a pathway that results in the production of the metabolite in question.
With `O=C(O)CC(=O)O` [Malonic Acid] the “Mean % change in apoptosis vs. hypoxia control” value (shortened to “Mean % change”) was “reduces cell death”. In the case of `OC[C@H]1O[C@@H](n2cnc3c(O)ncnc32)[C@H](O)[C@@H]1O` [Inosine], the “Mean % change” value is reported as “reduces cell death”. In the case of `O=c1[nH]cnc2nc[nH]c12` [Hypoxanthine], the “Mean % change” value is reported as “potentiates cell death”. In the case of `O=C(O)c1cc(=O)[nH]c(=O)[nH]1` [Orotic Acid], the “Mean % change” value is reported as “reduces cell death”. With `NCCS(=O)(=O)O` [Taurine] the “Mean % change” value was “potentiates cell death”. For `O=C(O)CCC(=O)O` [Succinic Acid], the “Mean % change” value was “potentiates cell death”. In the case of `C[N+](C)(C)[O-]` [Trimethylamine-N-Oxide], the “Mean % change” value is reported as “reduces cell death”. With `O=P(O)(O)OCC(O)CO` (stereo not drawn) [Glycerol-3-P, glycerol-3-phosphate] the “Mean % change” value was “reduces cell death”.
